Measurements taken from patent US8871934B2, “Fluorene compound and pharmaceutical use thereof” (Japan Tobacco Inc., priority 2008, dated 2014).
Where two headings read alike, the source gives them in different places.

Molecular target: human PDHK2 (hPDHK2) (Homo sapiens (Human), UniProt Q15119)
Assay: Inhibitory action of PDHK activity in vitro (kinase reaction, residual PDH activity measured)
Format: biochemical
Description: In the case of human PDHK2 (hPDHK2, Genbank Accession No. NM_002611), modified hPDHK2 cDNA wherein FLAG-Tag sequence is added to the N terminal by a polymerase linkage reaction was prepared based on hPDHK2 cDNA clone (pReceiver-M01/PDK2-GeneCopoeia), and cloned into a vector (pET17b-Novagen). The recombinant construct was transformed into Escherichia coli (DH5α-TOYOBO). The recombinant clones were identified, plasmid DNA was isolated and subjected to the DNA sequence analysis. One clone which had the expected nucleic acid sequence was selected for expression work.
During the assay, the hPDHK2 enzyme concentration was set to the minimal concentration at which PDH is inhibited the most.
0.05 U/mL PDH (porcine heart PDH complex, Sigma P7032) and 1.6 μg/mL hPDHK2 were mixed in a buffer (50 mmol/L 3-morpholinopropanesulfonic acid (pH 7.0), 20 mmol/L dipotassium hydrogen phosphate, 60 mmol/L potassium chloride, 2 mmol/L magnesium chloride, 0.4 mmol/L EDTA, and 0.2% Pluronic F-68, 2 mmol/L dithiothreitol), the mixture was incubated at 4° C. overnight to give PDH/hPDHK2 complex. The test compound was diluted with dimethyl sulfoxide (DMSO). PDH/hPDHK2 complex (20 μL), test compound (1.5 μL) and 3.53 μmol/L ATP (diluted with buffer, 8.5 μL) were added to a half area 96 well UV-transparent microplate (Corning 3679), and PDHK reaction was performed at room temperature for 45 min. Instead of the test compound, DMSO (1.5 μL) was added to a control well. DMSO (1.5 μL) was added instead of the test compound to a blank well for the measurement of the maximum rate of PDH reaction, and hPDHK2 was not added. Than, 10 μL of substrates (5 mmol/L sodium pyruvate, 5 mmol/L Coenzyme A, 12 mmol/L NAD, and 5 mmol/L thiamine pyrophosphate, diluted with buffer) was added. The mixture was incubated at room temperature for 90 min, and the residual PDH activity was measured. The absorbance at 340 nm before and after PDH reaction was measured on a microplate reader to detect NADH produced by the PDH reaction. The PDHK inhibitory rate (%) of the test compound was calculated from the formula [{(PDH activity of test compound—PDH activity of control)/PDH activity of blank—PDH activity of control)}×100]. The IC50 value was calculated from the concentrations of the test compound at two points enclosing 50% inhibition of the PDHK activity.

[1] = PDHK inhibitory activity, class symbol of IC50
[2] = read-out: PDHK inhibitory activity IC50
[3] = read-out: PDHK inhibitory activity (class symbol)
[4] = PDHK inhibitory activity (class symbol)
[5] = PDHK inhibitory activity IC50 (μmol/L)

| SMILES | IC50 [1] | IC50 [2] | also measured |
| --- | --- | --- | --- |
| NC(=O)COc1cc(-c2cnn(CCO)c2)c2c(c1)C(O)(C(F)(F)F)c1ccccc1-2 (single isomer, unassigned) [compound 477] | < 100 nM | 18 nM |  |
| O=C(c1cc(Br)c2c(c1)C(O)(C(F)(F)F)c1ccccc1-2)N1CCC1 (centres unmarked) [compound 114] | < 100 nM | 51 nM |  |
| COC(=O)c1cc(C(=O)OC)c2c(c1)C(O)(C(F)(F)F)c1ccccc1-2 (centres unmarked) [compound 50] | 100 to 1000 nM | 100 nM |  |
| CN(C)C(=O)c1ccc(-c2ccc3c(c2)C(O)(C(F)(F)F)c2ccccc2-3)cc1 (centres unmarked) [compound 192] | 100 to 1000 nM | 182 nM |  |
| CN(C)C(=O)CCCCOc1ccc2c(c1)C(O)(C(F)(F)F)c1ccccc1-2 (centres unmarked) [compound 299] | 100 to 1000 nM | 235 nM |  |
| NC(=O)CCCOc1cc(Cl)c2c(c1)C(O)(C(F)(F)F)c1ccccc1-2 (centres unmarked) [compound 410] | 100 to 1000 nM | 154 nM |  |
| CC(=O)N(C)C[C@@H](O)COc1cc(-c2cnn(C)c2)c2c(c1)C(O)(C(F)(F)F)c1ccccc1-2 (some centres unmarked) [compound 499] | < 100 nM | 39 nM |  |
| O=C(O)Cn1cc(-c2ccc3c(c2)C(O)(C(F)(F)F)c2cccc(CO)c2-3)cn1 (centres unmarked) [compound 608] |  | > 1000 nM | IC50 [3]: > 1000 nM |
| Cc1cc(-c2cnn(C(C)(C)C(=O)O)c2)c2c(c1)C(O)(C(F)(F)F)c1ccccc1-2 (single isomer, unassigned) [compound 574] | < 100 nM | 52 nM |  |
| OC1(C(F)(F)F)c2ccccc2-c2cc(Cl)ccc21 (centres unmarked) [compound 9] | > 1000 nM | 20000 nM |  |
| NCCCOc1ccc2c(c1)C(O)(C(F)(F)F)c1ccccc1-2 (centres unmarked) [compound 331] | > 1000 nM | 1420 nM |  |
| COC(=O)c1cccc(-c2ccc3c(c2)C(O)(C(F)(F)F)c2ccccc2-3)c1 (centres unmarked) [compound 154] | 100 to 1000 nM | 309 nM |  |
| Cn1nnnc1-c1cccc2c1-c1ccccc1C2(O)C(F)(F)F (centres unmarked) [compound 251] | > 1000 nM | > 10000 nM |  |
| CNC1CCN(C(=O)c2ccc3c(c2)C(O)(C(F)(F)F)c2ccccc2-3)C1 (centres unmarked) [compound 228] | > 1000 nM | 2190 nM |  |
| C#Cc1cc(CO)c2c(c1)C(O)(C(F)(F)F)c1ccccc1-2 (centres unmarked) [compound 641] |  | 510 nM | IC50 [4]: 100 to 1000 nM |
| CCC(=O)Nc1ccc2c(c1)-c1ccccc1C2(O)C(F)(F)F (centres unmarked) [compound 100] | > 1000 nM | 6150 nM |  |
| Nc1ccc2c(c1)-c1ccccc1C2(O)C(F)(F)F (centres unmarked) [compound 26] | > 1000 nM | 17600 nM |  |
| CC(C)C(=O)c1cccc2c1-c1ccccc1C2(O)C(F)(F)F (centres unmarked) [compound 93] | > 1000 nM | 29500 nM |  |
| CN(C)C(=O)COc1ccc2c(c1)C(O)(C(F)(F)F)c1ccccc1-2 (centres unmarked) [compound 290] | 100 to 1000 nM | 793 nM |  |
| CNC(=O)C1CCN(c2ccc3c(c2)C(O)(C(F)(F)F)c2ccccc2-3)CC1 (centres unmarked) [compound 231] | > 1000 nM | 3610 nM |  |
| Cn1cc(-c2ccc3c(c2)C(O)(C(F)(F)F)c2ccccc2-3)cn1 (centres unmarked) [compound 377] | 100 to 1000 nM | 189 nM |  |
| O=C(O)CCCOc1cc(-c2cnco2)c2c(c1)C(O)(C(F)(F)F)c1ccccc1-2 (centres unmarked) [compound 613] |  | 76 nM | IC50 [4]: < 100 nM |
| Cc1ccc2c(c1)-c1ccccc1C2(O)C(F)(F)F (centres unmarked) [compound 10] | > 1000 nM | 30800 nM |  |
| Cn1cc(-c2cc(OCCC(=O)O)cc3c2-c2ccccc2C3(O)C(F)(F)F)cn1 (centres unmarked) [compound 454] | < 100 nM | 64 nM |  |
| O=C(c1cc(-c2cnn(CCO)c2)c2c(c1)C(O)(C(F)(F)F)c1ccccc1-2)N1CCCC1 (single isomer, unassigned) [compound 657] |  | 20 nM | IC50 [4]: < 100 nM |

| SMILES | IC50 [1] | IC50 [2] | also measured |
| --- | --- | --- | --- |
| CC(Oc1ccc2c(c1)C(O)(C(F)(F)F)c1ccccc1-2)C(=O)O (centres unmarked) [compound 413] | > 1000 nM | 1230 nM |  |
| O=C(O)C1(n2cc(-c3cc(F)cc4c3-c3ccccc3[C@]4(O)C(F)(F)F)cn2)CCCC1 (stereo in doubt) [compound 549] | < 100 nM |  | IC50 [5]: 27 nM |
| Cn1cc(-c2cc(C(=O)O)cc3c2-c2ccccc2C3(O)C(F)(F)F)cn1 (centres unmarked) [compound 344] |  | > 1000 nM | IC50 (class symbol of IC50, read-out: PDHK inhibitory activity): > 1000 nM |
| OCC1(n2cc(-c3cc(F)cc4c3-c3ccccc3[C@]4(O)C(F)(F)F)cn2)CCCC1 (stereo in doubt) [compound 548] | < 100 nM |  | IC50 [5]: 16 nM |
| CC(C)(C)C(=O)N1CCN(c2ccc3c(c2)C(O)(C(F)(F)F)c2ccccc2-3)CC1 (centres unmarked) [compound 209] | 100 to 1000 nM | 281 nM |  |
| CN(C)c1cccc2c1-c1ccccc1C2(O)C(F)(F)F (centres unmarked) [compound 84] | > 1000 nM | 42100 nM |  |
| OC1(C(F)(F)F)c2ccccc2-c2c(Cl)cccc21 (centres unmarked) [compound 6] | > 1000 nM | 2290 nM |  |
| CNC(=O)Cn1cc(-c2cccc3c2-c2ccccc2C3(O)C(F)(F)F)cn1 (centres unmarked) [compound 494] | < 100 nM | 44 nM |  |
| CN(C)C(=O)C1CCN(C(=O)c2ccc3c(c2)C(O)(C(F)(F)F)c2ccccc2-3)C1 (centres unmarked) [compound 229] | 100 to 1000 nM | 552 nM |  |
| COc1cc(-c2cnn(CC(C)(C)C(=O)O)c2)c2c(c1)C(O)(C(F)(F)F)c1ccccc1-2 (single isomer, unassigned) [compound 619] |  | 33 nM | IC50 [4]: < 100 nM |
| CC(=O)N(CCOc1ccc2c(c1)C(O)(C(F)(F)F)c1ccccc1-2)CCC(=O)O (centres unmarked) [compound 443] | > 1000 nM | 1150 nM |  |
| O=C(c1cccc2c1-c1ccccc1C2(O)C(F)(F)F)C1CC1 (centres unmarked) [compound 83] | > 1000 nM | 1140 nM |  |
| OCCn1cc(-c2cc(-c3cnn(CCO)c3)c3c(c2)C(O)(C(F)(F)F)c2ccccc2-3)cn1 (centres unmarked) [compound 580] | < 100 nM | 21 nM |  |
| CCCCN(C)C(=O)c1ccc2c(c1)C(O)(C(F)(F)F)c1ccccc1-2 (centres unmarked) [compound 308] | > 1000 nM | 2670 nM |  |
| CN(C)C(=O)C1CN(C(=O)c2cc(Cl)c3c(c2)C(O)(C(F)(F)F)c2ccccc2-3)C1 (centres unmarked) [compound 329] | < 100 nM | 66 nM |  |
| Cc1ccc(-c2cccc3c2-c2ccccc2C3(O)C(F)(F)F)cn1 (centres unmarked) [compound 273] | 100 to 1000 nM | 396 nM |  |
| Nc1ccc2c(c1)C(O)(C(F)(F)F)c1ccccc1-2 (centres unmarked) [compound 55] | > 1000 nM | 19800 nM |  |
| O=C(NCCCO)c1ccc2c(c1)C(O)(C(F)(F)F)c1ccccc1-2 (centres unmarked) [compound 311] | > 1000 nM | 7150 nM |  |
| CNC(=O)CCCOc1ccc2c(c1)C(O)(C(F)(F)F)c1ccccc1-2 (centres unmarked) [compound 281] | > 1000 nM | 1000 nM |  |
| O=C1CC[C@H](COc2ccc3c(c2)C(O)(C(F)(F)F)c2ccccc2-3)N1 (some centres unmarked) [compound 445] | 100 to 1000 nM | 605 nM |  |
| CN(C)C(=O)COc1cc(-c2cnn(C)c2)c2c(c1)C(O)(C(F)(F)F)c1ccccc1-2 (centres unmarked) [compound 457] | < 100 nM | 30 nM |  |
| NC(=O)c1cccc2c1-c1ccccc1C2(O)C(F)(F)F (centres unmarked) [compound 33] | > 1000 nM | 1810 nM |  |
| CC(=O)c1cc(-c2cnn(CCC(=O)O)c2)cc2c1-c1ccccc1C2(O)C(F)(F)F (centres unmarked) [compound 594] | < 100 nM | 48 nM |  |
| N#CCc1cc(Cl)cc2c1-c1ccccc1C2(O)C(F)(F)F (centres unmarked) [compound 625] |  | > 1000 nM | IC50 [3]: > 1000 nM |
